From article PMC3694003 (PLoS ONE, 2013)
Read-outs that look alike come from different tables or passages of the source. Bridge positions count the residues as written; N and C are the ends. Ends that are not written are not given here. Peptide text beside a SMILES is read from it.

Columns and labels:
[1] = system: primary activated human lymphocytes (PBMCs); type: cell-based; details: for immunosuppressive activity: mutation in hydrophilic 'bioactive face', Table 1, Figure 2
Method: (§1) Purified T-cells were obtained by CD3^+ positive selection using magnetic cell separation method according to manufacturer’s instructions (StemCell Technologies, Grenoble, France). Cells were washed twice with medium and cell viability as well as concentration was determined using the trypan blue exclusion test.
(§2) After cultivation, the cells were assessed in biological tests as described. Alternatively for IL-2 supplementation assays, lymphocytes or purified T-cells were equilibrated for 2 h at 37°C.

[2] = system: purified human T-cells (CD3+); type: cell-based; details: cyclotides 1.8-14 µM
Method: as §1, §2

[3] = system: IL-2 surface receptor CD25; type: cell-based, human; details: 4 µM; for IL-2 surface receptor CD25 expression compared to stimulated lymphocytes (ctrl, 100%): mean ± SD
Method: as §2
Cultured cells were washed with PBS and stained with PE-labeled anti-human CD25 mAbs (eBioscience) for 15 min at 4°C. Afterwards, the cells were washed twice with PBS and resuspended and transferred into FACS vials and expression of the IL-2 surface receptor α-chain CD25 was measured by FACS analysis using a FACSCalibur instrument.

[4] = system: IL-2 release of activated lymphocytes; type: cell-based, human; details: 4 µM; 24 h then PMA/ionomycin 6 h; mean ± SD
Method: as §2
(§3) Cells were treated for 24 or 36 h, respectively and were restimulated with PMA (50 ng/mL) and ionomycin (500 ng/mL) for additional 6 h. Supernatants were harvested by centrifugation and were stored at -20°C. The amount of cytokines was measured and quantified using the FlowCytomix^TM technique according to manufacturer’s instructions (eBioscience) or alternatively intracellular cytokine production was determined. For this purpose the cells were fixed and permeabilized using 4% paraformaldehyde (Sigma-Aldrich) and Perm/Wash solution (Becton Dickinson), followed by staining with PE-conjugated anti-human IFN-γ mAb or anti-human TNF-α mAb (both from eBioscience), respectively. For CD107a degranulation assay, cells were restimulated with PMA (10 or 50 ng/mL, respectively) und ionomycin (100 or 500 ng/mL, respectively) and to each well containing 200 µL of cell suspension, 5 µL (~0.25 µg) PE-conjugated anti-CD107a mAb (eBioscience) were added. After incubation at 37°C for 1 h, 2 µL of 1/10 diluted GolgiStop (Becton Dickinson) was added per well and the plates were incubated for another 2.5 h. Samples were analyzed with a BD FACSCalibur flow cytometer using BD CellQuest Pro Software.

[5] = system: IL-2 release of purified T-cells; experiment: IL-2 secretion of purified T-cells, ELISA-based; type: cell-based, human; details: 4 µM; 24 h then PMA/ionomycin 6 h; relative to [V10K] kalata B1
Method: as §2, §3

il-2 mRNA = experiment: il-2 gene expression, quantitative RT-PCR; type: cell-based, human; details: 4 µM; lymphocytes; normalized to 18s rRNA
Method: Total RNA was extracted from controls or treated cells (4 x 10^6) and frozen at -80°C until further use. RNA purification was performed according to the manufacturer’s instructions for the RNeasy mini and RNAse-Free DNAse digestion kits (Qiagen, Hamburg, Germany). The quantity and purity of extracted RNA was measured by nanodrop spectrophotometry (Peqlab, Erlangen, Gemany) and purified RNA was reverse transcribed using the RT^2 First Strand Kit (Qiagen). RT-PCR reactions were carried out on a MyiQ kit (BioRad, Munich, Germany) in a final volume of 25 µL using RT² qPCR Primer Assay (for il-2) and SYBR® Green qPCR master mix (both from Qiagen). Each determination was performed in duplicate and the housekeeping gene 18s rRNA was used as an internal control. The real-time thermal cycler program comprised an initial denaturation step at 95 °C for 10 min followed by a two-step program with 40 cycles (95°C, 15 sec; and 60°C, 60 sec). The relative gene expression of il-2 has been determined by comparative cycle threshold analysis and the data were normalized to the internal housekeeping gene 18s rRNA and the relative mRNA level in the untreated group (untreated PHA-L-activated).

[6] = system: primary human lymphocytes; type: cell-based; details: for proliferation compared to control, pretreated and washed cells with exogenous IL-2 / proliferation compared to control cells, pretreated and washed cells without exogenous IL-2: 4 µM pretreatment, PHA-L 10 µg/mL, day three, mean ± SD, three experiments; for proliferation compared to control, pretreated and washed cells with exogenous IL-2: recombinant human IL-2 added
Method: as §2
10 µg/milliliter PHA-L for 1 h. This was followed by washing off the substances and stimuli with PBS and resuspending the cells in medium for further assays as described.

IFN-γ = IFN-γ production of activated lymphocytes; type: cell-based, human; details: 4 µM, mean ± SD; for IFN-γ concentration compared to control: 24 h post stimulation, supernatant, ELISA-based, three experiments
Method: as §3

TNF-α = TNF-α production of activated lymphocytes; type: cell-based, human; details: 4 µM, mean ± SD; for TNF-α production compared to control: 36 h post stimulation, intracellular cytokine flow cytometry
Method: as §3

[7] = system: degranulation marker LAMP-1 (CD107a); experiment: CD107a degranulation assay; type: cell-based, human; details: 36 h, 4 µM, mean ± SD, three experiments
Method: as §3

[8] = system: Ca2+-release in human primary T-cells; experiment: Ca2+-release assay in T-cells; type: cell-based; details: for inhibition or delay of PMA/ionomycin-triggered Ca2+-release after pretreatment: 4 µM overnight (16 h), Fluo-4/Fura Red flow cytometry; for direct change in Ca2+-signaling: 4 µM, Fura-2 loaded T-cells, fluorometer
Method: Human primary T-cells (1 x 10^6/mL) were loaded with 1 µM Fura-2 and 0.02% Puronic F-127 for 30 min at 37°C. Cells were centrifuged for 5 min at 1200 rpm and resuspended in RPMI 1640 media supplemented with 10% fetal calf serum, penicillin (100 U/mL) and streptomycin (100 U/mL). 100 µL of cell suspension were transferred into a black 96-well plate with a clear flat-bottom. Briefly before analysis the fluorometer Synergy H4 (BioTek, Winooski, VT) was equilibrated to 37°C. The fluorescence time course was measured with: extinction at 340 and 380 nm, respectively, and emission at 510 nm in 30 sec intervals, while continuously shaking. […] To receive maximum Ca^2+-release, cells were stimulated with PMA (50 ng/mL) and ionomycin (500 ng/mL). For lowest Ca^2+-levels, cells remained untreated. […] (4 µM each) or left untreated over night at 37°C in a 24-well flat-bottom plate. Cells were stained for 15 min with Fluo-4 (2 µM) and Fura Red (4 µM), centrifuged at 1000 rpm for 5 min and resuspended in medium. Ca^2+-release was measured by time-dependent flow cytometry using BD FACSCalibur as described previously. Fluo-4 and Fura Red signals were detected using flow cytometric analysis. After equilibrating basal calcium levels for 60 sec, PMA (50 ng/mL) and ionomycin (500 ng/mL) were added to the preincubated T-cells. Fluorescence ratio was calculated using WEASEL 2.3 software.

[9] = system: lymphocytes and purified T-cells; experiment: Cytotoxicity in proliferation experiments; type: cell-based, human; details: analyzed concentration range up to 14 µM
Method: as §2

Molecule | IL-2 surface receptor CD25 expression compared to stimulated lymphocytes (ctrl, 100%) ([3]; 24 h) | IL-2 surface receptor CD25 expression compared to stimulated lymphocytes (ctrl, 100%) ([3]; 36 h) | IL-2 release of T-lymphocytes compared to control cells [4] | level of il-2 mRNA compared to control (il-2 mRNA) | proliferation compared to control, pretreated and washed cells with exogenous IL-2 [6] | proliferation compared to control cells, pretreated and washed cells without exogenous IL-2 [6] | IFN-γ concentration compared to control (IFN-γ) | TNF-α production compared to control (TNF-α) | cells containing degranulation marker LAMP-1 as compared to control [7] | inhibition or delay of PMA/ionomycin-triggered Ca2+-release after pretreatment [8] | direct change in Ca2+-signaling [8] | immunosuppressive activity [1] | suppression of the proliferation of T-cells [2] | other results
CC(C)C[C@@H]1NC(=O)CNC(=O)[C@H](CC(N)=O)NC(=O)[C@H](CCCNC(=N)N)NC(=O)[C@H]([C@@H](C)O)NC(=O)[C@@H]2CSSC[C@@H]3NC(=O)[C@H]([C@@H](C)O)NC(=O)CNC(=O)CNC(=O)[C@H](C(C)C)NC(=O)[C@@H]4CSSC[C@H](NC(=O)[C@H](CCCCN)NC(=O)[C@H](CSSC[C@H](NC(=O)[C@H](C(C)C)NC(=O)[C@@H]5CCCN5C1=O)C(=O)NCC(=O)N[C@@H](CCC(=O)O)C(=O)N[C@@H]([C@@H](C)O)C(=O)N4)NC(=O)CNC(=O)[C@@H]1CCCN1C(=O)[C@H]([C@@H](C)O)NC(=O)[C@H](CC(N)=O)NC3=O)C(=O)N[C@@H](CO)C(=O)N[C@@H](Cc1c[nH]c3ccccc13)C(=O)N1CCC[C@H]1C(=O)N[C@@H](C(C)C)C(=O)N2 [[T20K]] (cyclo(CGETCVGGTCNTPGCKCSWPVCTRNGLPV); disulfide 1-15, 5-17, 10-22 (inferred); ring closure inferred) | 79% ± 10 | 46% ± 18 | 24% ± 19 | clearly decreased | 91% ± 1.4 | 29% ± 24 | 21% ± 13 | did not affect | 49% ± 17 | Neither cyclotides nor CsA induced any inhibition or a delay | did not induce any change | – | – | IC50 ([1]; CFSE flow cytometry, day three post stimulation, cyclotides 1.8-14 µM, non-linear regression (fixed slope), mean ± SD, a: n=7, b: n=4, c: n=3, read-out: IC50 (µM) ± SD, inhibition of lymphocyte (PBMC) proliferation): 1.9 ± 0.6 µM; IC50 ([2]; CFSE flow cytometry, day 3, non-linear regression (fixed slope), mean ± SD, c: n=3, d: n=2, read-out: IC50 (µM) ± SD, inhibition of purified T-cell proliferation): 2.7 ± 0.6 µM; IL-2 release of purified T-cells [5]: significantly decreased; restoring of normal proliferation by addition of IL-2 ([6]; peptide still present throughout the whole cultivation period (not washed off)): ineffective; IFN-γ level compared to control (IFN-γ; 36 h post stimulation, intracellular cytokine flow cytometry): no effect; TNF-α expression compared to control (TNF-α; 24 h post stimulation, supernatant, ELISA-based): 23% ± 11; cytotoxicity [9]: no signs of cytotoxicity
[T8K]: single point-mutated lysine analogue of kalata B1, position 8 (GLPVCGEKCVGGTCNTPGCTCSWPVCTRN; ends and bridges not checked; cysteine pairing not given here; UniProt P56254 89-117, looked up, variant T8K) | – | – | – | – | – | – | – | – | – | – | – | lost their immunosuppressive activity | did not suppress | IC50 (µM) ± SD, inhibition of lymphocyte (PBMC) proliferation ([1]; CFSE flow cytometry, day three post stimulation, cyclotides 1.8-14 µM, non-linear regression (fixed slope), mean ± SD, a: n=7, b: n=4, c: n=3): not active (n.a.)^b
[V10A]: single point-mutated alanine analogue of kalata B1, position 10 (cyclo(GLPVCGETCAGGTCNTPGCTCSWPVCTRN); disulfide 14-26, 5-19, 9-21; ends not checked; UniProt P56254 89-117, looked up, variant V10A) | – | – | – | – | – | – | – | – | – | – | – | lost their immunosuppressive activity | did not suppress | –
[V10K]: single point-mutated lysine analogue of kalata B1, position 10; 'inactive' mutant (GLPVCGETCKGGTCNTPGCTCSWPVCTRN; ends and bridges not checked; cysteine pairing not given here; UniProt P56254 89-117, looked up, variant V10K) | – | – | no effect | – | did not have any effect | no effect | not affected | did not affect | no influence | Neither cyclotides nor CsA induced any inhibition or a delay | did not induce any change | lost their immunosuppressive activity | did not suppress | IL-2 receptor surface level ([3]; time not given): unaffected
cyclosporin A [CsA, reference compound] | 76% ± 11 | 62% ± 7.3 | – | clearly decreased | – | – | – | – | 42% ± 21 | Neither cyclotides nor CsA induced any inhibition or a delay | did not induce any change | – | – | –
